“Also recorded” adds a separate entry of the source.
System: differentiated PLB-985 cells
Assay: Quantifying DNA released (adherent NET-DNA) after PMA stimulation by spectrophotometry
Type: cell-based, human
Details: 1, 10 or 50 μM GSK484 one hour prior to PMA; N=2
Experimental: The results of the DAPI and SYTOX™ Green staining studies in FIG. 2C, 2D are consistent with DX1-mediated inhibition of chromatin decondensation and DNA release by differentiated PLB-985 cells. To further probe this effect, DNA-protein release was measured by differentiated PLB-985 cells after PMA stimulation by resuspending and quantifying DNA-protein complexes adherent to wells by spectrophotometry using a previously described protocol for isolation and quantification of NET-DNA in cell culture. This assay is based on the concept that intact cells for the most part remain in suspension, while DNA-protein complexes released in NETs are at least partially adhered to wells. This distinction allows for separation of intact cells from adherent NET-DNA by aspiration of the cell culture supernatants, followed by resuspension of adherent DNA-protein complexes and quantification by spectrophotometry.
Next, the ability of this assay to detect the effect of a known NETosis inhibitor on DNA release by differentiated PLB-985 cells stimulated by PMA was verified. […] Differentiated PLB-985 cells were treated with 0-50 μM of GSK484 for one hour prior to stimulation with PMA, followed by quantification of adherent DNA by spectrophotometry. […]

COc1cc(C(=O)N2CC[C@@H](O)[C@@H](N)C2)cc2nc(-c3cc4ccccc4n3CC3CC3)n(C)c12 [GSK484]
DNA release in response to PMA (adherent DNA by spectrophotometry): reduced extracellular DNA in a dose-dependent manner; also recorded: dose-dependent inhibition of DNA release

— patent US20250188194A1, “Method of treatment” (Nucleus Therapeutics Pty Ltd, priority 2021, published 2025)
